Assay results taken from patent publication US20260035385A1, “BENZO NITROGEN-CONTAINING HETEROAROMATIC RING DERIVATIVE AND USE THEREOF IN MEDICINE” (Xizang Haisco Pharmaceutical Co., Ltd., priority 2021, published 2026).
Counter-ions that a name gives are not always drawn.

Assays:
[1] = tested on: complement alternative pathway; experiment: Biological Test Example 2: complement alternative pathway inhibition, IBL alternative pathway kit, serum from healthy volunteers; type: biochemical, human; conditions: LPS-coated plate, 37 °C 1 h, read-out: IC50 for inhibiting alternative pathway
Protocol: The inhibitory effect of the compounds on the complement alternative pathway was detected using the IBL alternative pathway kit (COMPL AP330 RUO). Serum from healthy volunteers was collected and 1 portion was diluted with a buffer of 20 mM EDTA in gelatin (0.15 mM CaCl2, 141 mM NaCl, 4.5 mM MgCl2, 4.2 mM HEPES, and 0.1% gelatin at pH 7.4) to 50% (v/v), and 1 portion was diluted to 50% (v/v) with a buffer of 20 mM EGTA in gelatin. The compounds were prepared in DMSO to a working solution 100 times the final concentration. Before use, 50% of the above serum was diluted 1/18 with the AP diluent in the kit. 1 part of the compound working solution (v/v) or DMSO (positive control PC) was added to 99 parts of the diluted serum containing EGTA for pretreatment for 30 min, and 1 part of DMSO (v/v) was added to 99 parts of the diluted serum containing EDTA, as negative control (NC). The serum pretreated with the above compounds (or DMSO) was added at […] to the LPS-coated 96-well plate, incubated at 37° C. for 1 h, and the plate was washed 3 times with washing solution in the kit; the conjugated chromogenic substrate was added according to the instruction in the kit, and the absorbance was read at 405 nm with a microplate reader. The inhibitory activity of the compounds on alternative pathway was calculated using the following formula.
OD^CPD was the OD value when the inhibitor was added, OD^NC was the OD value of the negative control, and OD^PC was the OD value of the positive control.
Graphpad was used to perform nonlinear regression on the final concentrations and inhibition rates of the compounds to obtain the IC50 of the compounds for inhibiting the alternative pathway.

[2] = Pharmacokinetic test in rats; type: in vivo, SD rats; conditions: for maximum plasma concentration in rats / oral bioavailability in rats / time to peak: compared with LNP023, in words; for bioavailability / Cmax / Tmax / half-life / AUC(0-t): male, SD, rat, plasma, po, i.g. (10 mg/kg); for bioavailability / Cmax / Tmax / half-life / AUC(0-t) / time to peak: rats; for AUC(0-t): read-out: AUC0-24 h
Protocol: Test objective: In this experiment, a single dose of each test compound was administered to SD rats intravenously and intragastrically, and the concentrations of the test compounds in plasma of rats were measured to evaluate the pharmacokinetic characteristics of the test compounds in rats.
Experimental animals: male SD rats, 200-250 g, 6-8 weeks old, 6 rats/compound, purchased from Chengdu Ddossy Experimental Animals Co., Ltd.
Experimental method: on the day of the test, 6 SD rats were randomly grouped according to their body weight. The animals were fasted with water available for 12 to 14 hours one day before the administration of a test compound, and were fed 4 hours after the administration.
Sampling: Before and after the administration, 0.15 mL of blood sample was drawn from the orbit under isoflurane anesthesia, and placed in an EDTAK2 centrifuge tube. Centrifugation was carried out at 5000 rpm at 4° C. for 10 min, and the plasma was collected.
Time points for plasma collection in IV&PO group: 0, 5 min, 15 min, 30 min, 1 h, 2 h, 4 h, 6 h, 8 h, and 24 h.
(§1) Before analysis and detection, all samples were stored at −60° C. The samples were analyzed quantitatively by LC-MS/MS.

[3] = Pharmacokinetic test of dogs; type: in vivo; conditions: male, beagle, dog, plasma, po, i.g. (5 mg/kg)
Protocol: (§2) Test objective: In this experiment, a single dose of test compounds was administered to beagle dogs intravenously and intragastrically, and the concentrations of the test compounds in plasma of the beagle dogs were measured to evaluate pharmacokinetic characteristics of the test compounds in the beagle dogs.
Experimental animals: Male beagle dogs, 8-11 kg, 1-3 years old, 6 dogs/compound. purchased from Beijing Marshall Biotechnology Co. Ltd.
Experimental method: on the day of the test, 6 beagle dogs were randomly grouped according to their body weights. The animals were fasted with water available for 14 to 18 hours one day before the administration of a test compound, and were fed 4 hours after the administration.
Sampling: Before and after the administration, 1.0 mL of blood was taken from the jugular veins or limb veins, and placed in an EDTAK2 centrifuge tube. Centrifugation was carried out at 5000 rpm at 4° C. for 10 min, and the plasma was collected.
(§3) Time points for plasma collection in IV&PO group: 0, 5 min, 15 min, 30 min, 1 h, 2 h, 4 h, 6 h, 8h, 10 h, 12h, and 24 h.
as §1

[4] = Pharmacokinetic experiment in monkeys; type: in vivo, cynomolgus monkeys; conditions: for bioavailability in monkeys / oral exposure in monkeys: compared with the trifluoroacetate of LNP023, in words; for bioavailability / AUC(0-t): male, cynomolgus monkey, plasma, po, monkeys, i.g. (5 mg/kg)
Protocol: as §2, with “to cynomolgus monkeys” for “to beagle dogs”, “the monkeys” for “the beagle dogs”, “the monkeys.” for “the beagle dogs.”
Experimental animals: Male cynomolgus monkeys, 3-5 kg, 3-6 years old, 6 monkeys/compound. Purchased from Suzhou Xishan Biotechnology Inc.
Experimental method: on the day of the test, 6 monkeys were randomly grouped according to their body weights. The animals were fasted with water available for 14 to 18 hours one day before the administration of a test compound, and were fed 4 hours after the administration.
Sampling: before and after the administration, 1.0 mL of blood was taken from the limb veins, and placed in an EDTAK2 centrifuge tube. Centrifugation was carried out at 5000 rpm at 4° C. for 10 min, and the plasma was collected.
as §3, §1

Caco2 permeability test = type: in vitro ADME; conditions: human, pH 7.4, Caco-2 monolayer, 2 μM, 2 h
Protocol: (§4) The experiment used a monolayer of Caco-2 cells incubated in triplicate in a 96-well Transwell plate. […] Acetonitrile containing internal standard was then added to precipitate the protein. […] The integrity of the cell monolayer after 2 h of incubation was assessed by leakage of Lucifer Yellow.

Caco-2 cells = experiment: Caco2 permeability test; type: in vitro ADME; conditions: Caco2, compared with the trifluoroacetate of LNP023, in words
Protocol: as §4

FB = FB (Homo sapiens, UniProt P00751); experiment: biochemical
Chain of FB (P00751 260-764 limits assumed): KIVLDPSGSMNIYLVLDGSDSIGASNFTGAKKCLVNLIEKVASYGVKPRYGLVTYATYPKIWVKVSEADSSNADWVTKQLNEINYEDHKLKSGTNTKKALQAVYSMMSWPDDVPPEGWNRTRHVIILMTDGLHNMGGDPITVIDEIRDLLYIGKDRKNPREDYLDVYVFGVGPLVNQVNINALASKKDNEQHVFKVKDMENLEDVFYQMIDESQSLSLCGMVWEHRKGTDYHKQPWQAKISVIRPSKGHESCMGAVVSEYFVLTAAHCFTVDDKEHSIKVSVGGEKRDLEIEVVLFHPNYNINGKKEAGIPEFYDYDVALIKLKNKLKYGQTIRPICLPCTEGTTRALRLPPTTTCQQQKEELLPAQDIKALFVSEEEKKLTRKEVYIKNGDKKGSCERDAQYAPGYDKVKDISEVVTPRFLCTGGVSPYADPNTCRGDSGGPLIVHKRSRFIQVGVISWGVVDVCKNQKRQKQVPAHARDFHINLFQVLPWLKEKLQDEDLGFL
Chain of FB (Q91132 23-649 partner limits assumed): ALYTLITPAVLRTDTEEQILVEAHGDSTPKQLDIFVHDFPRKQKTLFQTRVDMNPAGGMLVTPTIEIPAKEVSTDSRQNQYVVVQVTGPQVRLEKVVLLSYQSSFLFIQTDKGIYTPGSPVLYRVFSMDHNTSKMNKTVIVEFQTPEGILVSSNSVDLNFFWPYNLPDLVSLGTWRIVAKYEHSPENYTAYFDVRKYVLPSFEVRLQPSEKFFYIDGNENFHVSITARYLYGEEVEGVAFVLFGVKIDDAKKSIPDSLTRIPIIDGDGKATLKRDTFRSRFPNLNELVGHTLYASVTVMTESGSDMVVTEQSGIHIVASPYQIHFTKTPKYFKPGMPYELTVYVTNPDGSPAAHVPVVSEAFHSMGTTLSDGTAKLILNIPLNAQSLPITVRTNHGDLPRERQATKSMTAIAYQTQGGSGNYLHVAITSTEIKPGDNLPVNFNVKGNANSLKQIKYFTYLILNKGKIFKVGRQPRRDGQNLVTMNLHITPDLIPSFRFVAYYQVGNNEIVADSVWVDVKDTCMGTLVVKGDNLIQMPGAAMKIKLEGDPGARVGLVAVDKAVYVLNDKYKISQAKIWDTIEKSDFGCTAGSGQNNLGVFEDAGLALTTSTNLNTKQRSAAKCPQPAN
Chain of FB (Q91132 733-984 partner limits assumed): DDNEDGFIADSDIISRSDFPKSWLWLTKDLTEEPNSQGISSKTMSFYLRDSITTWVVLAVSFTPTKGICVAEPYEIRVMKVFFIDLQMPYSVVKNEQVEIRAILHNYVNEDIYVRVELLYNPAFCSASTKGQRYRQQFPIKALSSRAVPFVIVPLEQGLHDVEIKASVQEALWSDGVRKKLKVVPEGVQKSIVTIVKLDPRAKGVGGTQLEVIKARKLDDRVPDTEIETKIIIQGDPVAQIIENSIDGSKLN
Chain of FB (Q91132 1264-1642 partner limits assumed): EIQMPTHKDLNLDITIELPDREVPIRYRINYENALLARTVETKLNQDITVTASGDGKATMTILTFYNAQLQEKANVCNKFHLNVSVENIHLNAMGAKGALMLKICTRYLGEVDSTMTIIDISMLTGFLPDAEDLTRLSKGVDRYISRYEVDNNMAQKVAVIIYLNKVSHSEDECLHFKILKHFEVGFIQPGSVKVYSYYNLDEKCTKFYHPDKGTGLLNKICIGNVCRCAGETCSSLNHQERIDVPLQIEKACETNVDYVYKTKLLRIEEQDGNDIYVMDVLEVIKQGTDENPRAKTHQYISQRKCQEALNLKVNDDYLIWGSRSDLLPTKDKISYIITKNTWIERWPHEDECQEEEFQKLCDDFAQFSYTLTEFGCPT
Protocol: CVF (1 μM), FB (1 μM) and FD (300 nM) were incubated in Assay buffer (pH=7.4, 10 mM MgCl2, 0.05% (m/v), CHAPS) for 3 h at room temperature, so that all FB was cleaved into Baby FD and CVF:Bb complex was generated. SDS-PAGE analysis confirmed that FB was completely hydrolyzed, that is, the concentration of the generated CVF:Bb complex was 300 nM. The CVF:Bb complex was diluted to a concentration of 5 nM using Assay buffer and preincubated with different concentrations of the compounds in assay buffer for 1 h at room temperature. C3 was added to a final concentration of 1 μM to start the enzymatic reaction. After reacting at room temperature for 1 h, protease inhibitor mixture (Roche Complete Inhibitor Tablets) was added to stop the enzyme reaction. Human C3a ELISA kit (Hycult HK354-01) was used to determine the generation of C3a according to the instruction in the kit. The FB activity inhibition rate was plotted against the inhibitor concentration, and graphpad nonlinear regression was used to calculate the IC50 value.

With `COc1cc(C)c2[nH]ccc2c1CN1CC[C@H](C2CC2)C[C@H]1c1ccc(C(=O)O)cc1` [Trifluoroacetate of compound 5-1 (diastereomer 2), 4-((2S)-4-cyclopropyl-1-((5-methoxy-7-methyl-1H-indol-4-yl)methyl)piperidin-2-yl)benzoic acid] the IC50 [1] was less than 200 nM.

Work on `COc1cc(C)c2[nH]ccc2c1CN1CCC2(CCCO2)C[C@H]1c1ccc(C(=O)O)cc1` (single isomer, unassigned) [Trifluoroacetate of compound 2-a (diastereomer 1)] yielded an IC50 [1] of less than 200 nM.

In the case of `C#CCC1CCN(Cc2c(OC)cc(C)c3[nH]ccc23)[C@H](c2ccc(C(=O)O)cc2)C1` (stereo partly drawn) [Compound 13, 4-((2S)-1-((5-methoxy-7-methyl-1H-indol-4-yl)methyl)-4-(prop-2-yn-1-yl)piperidin-2-yl)benzoic acid], the IC50 [1] is reported as less than 200 nM, the “maximum plasma concentration in rats” value [2] is reported as “higher” and the “oral bioavailability in rats” value [2] is reported as “higher”. The bioavailability [2] was 65.5%, the Cmax [2] was 1600 ng/mL and the Tmax [2] was 35 min. For the same molecule, the half-life [2] was 205 min, the AUC(0-t) [2] was 6030 ng·h/mL and the time to peak [2] was “shorter”. The bioavailability [3] was greater than 60%, the AUC(0-t) [3] was 36100 ng·h/mL and the half-life [3] was 436 min. For the same molecule, the bioavailability in monkeys [4] was “higher”, the “oral exposure in monkeys” value [4] was “higher” and the bioavailability [4] was 70.5 ± 4.5%. The AUC(0-t) [4] was 16600 ± 1070 ng·h/mL, the efflux ratio at 2 h, 2 μM (Caco2 permeability test) was 8.18 and the Papp A→B at 2 h, 2 μM (Caco2 permeability test) was 2.55 ×10⁻⁶ cm/s. For the same molecule, the Papp B→A at 2 h, 2 μM (Caco2 permeability test) was 20.9 ×10⁻⁶ cm/s, the efflux ratio (Caco-2 cells) was “lower” and the permeability (Caco-2 cells) was “better”.

In the case of `COc1cc(C)c2[nH]ccc2c1CN1CCN(C2CC2)CC1c1ccc(C(=O)O)cc1` (single isomer, unassigned) [Compound 27-1, 4-(4-cyclopropyl-1-((5-methoxy-7-methyl-1H-indol-4-yl)methyl)piperazin-2-yl)benzoic acid], the IC50 [1] is reported as less than 200 nM.

With `[2H]C([2H])([2H])Oc1cc(C)c2[nH]ccc2c1CN1CCC2(CCCO2)C[C@H]1c1ccc(C(=O)O)cc1` (single isomer, unassigned) [Trifluoroacetate of compound 6] the IC50 [1] was less than 200 nM and the IC50 (FB) was less than 500 nM.

With `COCC1CCN(Cc2c(OC)cc(C)c3[nH]ccc23)[C@H](c2ccc(C(=O)O)cc2)C1` (single isomer, unassigned) [Trifluoroacetate of compound 1-a] the IC50 [1] was less than 200 nM and the IC50 (FB) was less than 500 nM.

With `COc1cc(C)c2[nH]ccc2c1CN1CC[C@H](OCC2CC2)C[C@H]1c1ccc(C(=O)O)cc1` [Compound 4, 4-((2S,4S)-4-(cyclopropylmethoxy)-1-((5-methoxy-7-methyl-1H-indol-4-yl)methyl)piperidin-2-yl)benzoic acid] the IC50 [1] was less than 200 nM and the IC50 (FB) was less than 500 nM.

With `[2H]C([2H])([2H])Oc1cc(C)c2[nH]ccc2c1CN1CC[C@H](C2CC2)C[C@H]1c1ccc(C(=O)O)cc1` [Trifluoroacetate of compound 7 (diastereomer 1), 4-((2S)-4-cyclopropyl-1-((5-(methoxy-d3)-7-methyl-1H-indol-4-yl)methyl)piperidin-2-yl)benzoic acid] the IC50 [1] was less than 200 nM, the “maximum plasma concentration in rats” value [2] was “higher” and the “oral bioavailability in rats” value [2] was “higher”. The bioavailability [2] was 72.1%, the Cmax [2] was 1130 ng/mL and the half-life [2] was 192 min. It also gave an AUC(0-t) [2] of 9160 ng·h/mL, a bioavailability [3] of 75.5% and an AUC(0-t) [3] of 45400 ng·h/mL. The half-life [3] was 906 min, the bioavailability in monkeys [4] was “higher” and the “oral exposure in monkeys” value [4] was “higher”. For the same molecule, the bioavailability [4] was 98.3 ± 7.5%, the AUC(0-t) [4] was 48300 ± 3660 ng·h/mL and the Papp A→B at 2 h, 2 μM (Caco2 permeability test) was 1.77 ×10⁻⁶ cm/s. The Papp B→A at 2 h, 2 μM (Caco2 permeability test) was 19.4 ×10⁻⁶ cm/s and the permeability (Caco-2 cells) was “better”.

Molecule `COc1cc(C)c2[nH]ccc2c1CN1CCC(C2CC2)=C[C@H]1c1ccc(C(=O)O)cc1` [Ammonium salt of compound 12, (S)-4-(4-cyclopropyl-1-((5-methoxy-7-methyl-1H-indol-4-yl)methyl)-1,2,5,6-tetrahydropyridin-2-yl)benzoic acid] has an IC50 [1] of less than 200 nM.

With `COCCO[C@H]1CCN(Cc2c(OC)cc(C)c3[nH]ccc23)[C@H](c2ccc(C(=O)O)cc2)C1` [Trifluoroacetate of compound 3, 4-[(2S,4S)-1-[(5-methoxy-7-methyl-1H-indol-4-yl)methyl]-4-(2-methoxyethoxy)piperidin-2-yl]benzoic acid] the IC50 [1] was less than 200 nM.

With `COc1cc(C)c2[nH]ccc2c1CN1CCC(C2CCCC2)C[C@H]1c1ccc(C(=O)O)cc1` (single isomer, unassigned) [Ammonium of compound 11 (diastereomer 1)] the IC50 [1] was less than 200 nM.

Molecule `COc1cc(C)c2[nH]ccc2c1CN1CCC(C2CCC2)C[C@H]1c1ccc(C(=O)O)cc1` (single isomer, unassigned) [Formate of [compound 8 (diastereomer 1)]] has an IC50 [1] of less than 200 nM.

In the case of `C#C[C@H]1CCN(Cc2c(OC)cc(C)c3[nH]ccc23)[C@H](c2ccc(C(=O)O)cc2)C1` [Compound 10 (diastereomer 1), 4-((2S)-4-ethynyl-1-((5-methoxy-7-methyl-1H-indol-4-yl)methyl)piperidin-2-yl)benzoic acid], the IC50 [1] is reported as less than 200 nM, the “maximum plasma concentration in rats” value [2] is reported as “higher” and the “oral bioavailability in rats” value [2] is reported as “higher”. For the same molecule, the bioavailability [2] was 57.8%, the Cmax [2] was 2240 ng/mL and the Tmax [2] was 20 min. For the same molecule, the half-life [2] was 249 min, the AUC(0-t) [2] was 7920 ng·h/mL and the time to peak [2] was “shorter”. It also gave a bioavailability [3] of 56.2%, an AUC(0-t) [3] of 25300 ng·h/mL and a half-life [3] of 533 min. The efflux ratio at 2 h, 2 μM (Caco2 permeability test) was 4.62, the Papp A→B at 2 h, 2 μM (Caco2 permeability test) was 2.62 ×10⁻⁶ cm/s and the Papp B→A at 2 h, 2 μM (Caco2 permeability test) was 12.1 ×10⁻⁶ cm/s. The efflux ratio (Caco-2 cells) was “lower” and the permeability (Caco-2 cells) was “better”.
